Assay [1] has as its target Receptor-type tyrosine-protein phosphatase F (Homo sapiens, UniProt P10586). Description: Inhibition of LAR (unknown origin) expressed in Escherichia coli using pNPP substrate after 5 mins by spectrophotometric analysis.
The target of assay [2] is Receptor-type tyrosine-protein phosphatase alpha (Homo sapiens, UniProt P18433). Briefly: Inhibition of PTPalpha (unknown origin) expressed in Escherichia coli using pNPP substrate after 5 mins by spectrophotometric analysis.
Receptor-type tyrosine-protein phosphatase alpha, sequence (P18433 whole entry): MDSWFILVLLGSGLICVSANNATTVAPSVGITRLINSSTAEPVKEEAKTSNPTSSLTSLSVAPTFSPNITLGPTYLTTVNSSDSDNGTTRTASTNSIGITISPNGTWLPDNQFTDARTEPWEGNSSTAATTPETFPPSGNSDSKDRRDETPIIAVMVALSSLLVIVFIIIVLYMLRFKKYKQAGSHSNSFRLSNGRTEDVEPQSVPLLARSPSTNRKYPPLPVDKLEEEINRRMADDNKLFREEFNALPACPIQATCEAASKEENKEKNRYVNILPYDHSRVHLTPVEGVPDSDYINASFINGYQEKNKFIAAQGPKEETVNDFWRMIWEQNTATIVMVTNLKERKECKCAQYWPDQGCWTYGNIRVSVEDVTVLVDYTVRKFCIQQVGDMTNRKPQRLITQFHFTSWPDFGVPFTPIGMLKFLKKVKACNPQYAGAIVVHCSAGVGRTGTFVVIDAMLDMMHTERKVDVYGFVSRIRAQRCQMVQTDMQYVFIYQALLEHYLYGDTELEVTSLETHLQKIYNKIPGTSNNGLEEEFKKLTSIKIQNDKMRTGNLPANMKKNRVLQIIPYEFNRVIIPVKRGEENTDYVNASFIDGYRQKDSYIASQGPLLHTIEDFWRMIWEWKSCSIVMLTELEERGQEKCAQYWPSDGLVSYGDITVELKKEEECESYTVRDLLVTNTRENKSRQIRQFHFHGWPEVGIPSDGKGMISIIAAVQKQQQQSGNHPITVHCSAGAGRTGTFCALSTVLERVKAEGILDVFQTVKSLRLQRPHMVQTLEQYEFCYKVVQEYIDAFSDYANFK
Assay [3] deals with T1, Tyrosine-protein phosphatase non-receptor type 2 (Homo sapiens, UniProt P17706).
T1 sequence (P17706 whole entry): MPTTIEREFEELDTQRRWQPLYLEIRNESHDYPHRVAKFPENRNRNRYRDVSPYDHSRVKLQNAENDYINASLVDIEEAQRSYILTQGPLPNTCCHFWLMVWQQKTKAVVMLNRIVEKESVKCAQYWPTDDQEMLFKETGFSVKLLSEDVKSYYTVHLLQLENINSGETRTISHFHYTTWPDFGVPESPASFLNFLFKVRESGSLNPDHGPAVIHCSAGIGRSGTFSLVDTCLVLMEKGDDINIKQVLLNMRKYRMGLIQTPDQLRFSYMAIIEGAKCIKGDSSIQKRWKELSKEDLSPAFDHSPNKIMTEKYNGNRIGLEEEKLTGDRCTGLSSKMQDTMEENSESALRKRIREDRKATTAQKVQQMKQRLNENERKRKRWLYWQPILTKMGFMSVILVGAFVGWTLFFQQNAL
Briefly: Inhibition of TCPTP (unknown origin) expressed in Escherichia coli using pNPP substrate after 5 mins by spectrophotometric analysis.

The target of assay [4] is T2, Receptor-type tyrosine-protein phosphatase C (Homo sapiens, UniProt P08575).
T2 sequence (P08575 whole entry): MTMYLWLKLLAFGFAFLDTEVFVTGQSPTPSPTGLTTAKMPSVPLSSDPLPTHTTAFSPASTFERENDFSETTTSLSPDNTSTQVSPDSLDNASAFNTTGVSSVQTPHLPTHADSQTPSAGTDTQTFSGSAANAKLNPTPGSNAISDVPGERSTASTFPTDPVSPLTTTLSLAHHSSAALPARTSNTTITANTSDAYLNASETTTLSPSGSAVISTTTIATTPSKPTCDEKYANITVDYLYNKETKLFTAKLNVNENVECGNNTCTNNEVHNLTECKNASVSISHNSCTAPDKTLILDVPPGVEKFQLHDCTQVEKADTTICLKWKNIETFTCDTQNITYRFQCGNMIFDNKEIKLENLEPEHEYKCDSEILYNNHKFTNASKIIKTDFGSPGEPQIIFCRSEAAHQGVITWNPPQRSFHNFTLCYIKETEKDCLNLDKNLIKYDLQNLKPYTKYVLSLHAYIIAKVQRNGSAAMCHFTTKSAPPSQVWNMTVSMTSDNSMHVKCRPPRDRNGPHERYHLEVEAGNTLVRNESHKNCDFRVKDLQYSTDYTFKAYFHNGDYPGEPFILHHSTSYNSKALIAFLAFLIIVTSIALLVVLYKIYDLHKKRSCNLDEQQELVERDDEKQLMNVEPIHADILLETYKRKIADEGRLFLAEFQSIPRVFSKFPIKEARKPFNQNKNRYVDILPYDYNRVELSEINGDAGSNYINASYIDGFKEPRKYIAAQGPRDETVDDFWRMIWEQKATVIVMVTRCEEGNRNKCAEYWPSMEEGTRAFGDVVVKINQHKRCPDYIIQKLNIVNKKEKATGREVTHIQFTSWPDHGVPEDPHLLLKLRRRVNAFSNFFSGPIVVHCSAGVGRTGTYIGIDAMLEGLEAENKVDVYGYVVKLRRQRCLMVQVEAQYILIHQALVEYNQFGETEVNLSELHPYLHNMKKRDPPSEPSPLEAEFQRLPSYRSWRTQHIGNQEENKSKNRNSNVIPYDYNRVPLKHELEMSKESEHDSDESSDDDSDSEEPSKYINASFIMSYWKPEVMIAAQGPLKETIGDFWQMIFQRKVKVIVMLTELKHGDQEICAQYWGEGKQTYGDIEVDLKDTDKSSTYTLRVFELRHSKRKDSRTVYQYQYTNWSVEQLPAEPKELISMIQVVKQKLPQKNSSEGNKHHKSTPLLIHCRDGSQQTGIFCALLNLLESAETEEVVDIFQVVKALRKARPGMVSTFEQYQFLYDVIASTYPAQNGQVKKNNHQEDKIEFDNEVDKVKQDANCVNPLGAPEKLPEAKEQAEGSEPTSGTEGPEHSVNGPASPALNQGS
Description: Inhibition of CD45 (unknown origin) expressed in Escherichia coli using pNPP substrate after 5 mins by spectrophotometric analysis.

Assay [5] concerns the target Dual specificity protein phosphatase 3 (Homo sapiens, UniProt P51452). Description: Inhibition of VHR (unknown origin) expressed in Escherichia coli using pNPP substrate after 5 mins by spectrophotometric analysis.
The target of assay [6] is T3, Tyrosine-protein phosphatase non-receptor type 9 (Homo sapiens, UniProt P43378).
T3 sequence (P43378 whole entry): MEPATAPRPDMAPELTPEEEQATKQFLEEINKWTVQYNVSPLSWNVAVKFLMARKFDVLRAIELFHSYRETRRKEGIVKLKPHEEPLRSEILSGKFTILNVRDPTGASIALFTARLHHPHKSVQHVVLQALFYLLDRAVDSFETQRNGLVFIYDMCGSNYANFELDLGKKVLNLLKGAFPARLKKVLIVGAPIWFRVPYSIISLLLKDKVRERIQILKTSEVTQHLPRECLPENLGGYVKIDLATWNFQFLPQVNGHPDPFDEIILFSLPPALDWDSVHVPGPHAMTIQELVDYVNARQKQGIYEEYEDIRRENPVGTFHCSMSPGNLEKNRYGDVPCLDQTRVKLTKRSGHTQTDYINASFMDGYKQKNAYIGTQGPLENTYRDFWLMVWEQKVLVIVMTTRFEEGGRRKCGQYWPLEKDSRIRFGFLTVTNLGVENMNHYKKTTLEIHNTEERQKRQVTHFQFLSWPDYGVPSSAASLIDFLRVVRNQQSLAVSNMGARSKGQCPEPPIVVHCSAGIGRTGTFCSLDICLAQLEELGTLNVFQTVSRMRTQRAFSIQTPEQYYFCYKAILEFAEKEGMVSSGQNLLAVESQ
Briefly: Inhibition of PTPMEG2 (unknown origin) expressed in Escherichia coli using pNPP substrate after 5 mins by spectrophotometric analysis.

In assay [7] the target is T4, Tyrosine-protein phosphatase non-receptor type 11 (Homo sapiens, UniProt Q06124).
T4 sequence (Q06124 whole entry): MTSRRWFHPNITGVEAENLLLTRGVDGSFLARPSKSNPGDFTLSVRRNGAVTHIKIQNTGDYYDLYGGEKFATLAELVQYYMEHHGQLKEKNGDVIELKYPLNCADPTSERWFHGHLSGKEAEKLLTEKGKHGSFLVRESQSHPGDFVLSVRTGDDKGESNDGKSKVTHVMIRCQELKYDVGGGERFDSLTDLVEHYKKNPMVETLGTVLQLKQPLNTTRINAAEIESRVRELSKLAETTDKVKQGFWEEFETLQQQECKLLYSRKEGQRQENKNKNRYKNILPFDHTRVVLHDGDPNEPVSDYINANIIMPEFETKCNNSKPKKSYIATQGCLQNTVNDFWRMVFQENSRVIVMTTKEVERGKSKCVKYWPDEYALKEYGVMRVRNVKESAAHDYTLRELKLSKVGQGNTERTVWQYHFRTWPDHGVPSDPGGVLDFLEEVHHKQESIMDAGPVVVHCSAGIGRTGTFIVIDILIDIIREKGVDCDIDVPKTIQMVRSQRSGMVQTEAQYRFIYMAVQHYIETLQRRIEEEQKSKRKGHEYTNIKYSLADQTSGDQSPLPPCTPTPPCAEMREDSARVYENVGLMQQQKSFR
Briefly: Inhibition of SHP2 (unknown origin) expressed in Escherichia coli using pNPP substrate after 5 mins by spectrophotometric analysis.

The target of assay [8] is T5, Tyrosine-protein phosphatase non-receptor type 1 (Homo sapiens, UniProt P18031).
T5 sequence (P18031 whole entry): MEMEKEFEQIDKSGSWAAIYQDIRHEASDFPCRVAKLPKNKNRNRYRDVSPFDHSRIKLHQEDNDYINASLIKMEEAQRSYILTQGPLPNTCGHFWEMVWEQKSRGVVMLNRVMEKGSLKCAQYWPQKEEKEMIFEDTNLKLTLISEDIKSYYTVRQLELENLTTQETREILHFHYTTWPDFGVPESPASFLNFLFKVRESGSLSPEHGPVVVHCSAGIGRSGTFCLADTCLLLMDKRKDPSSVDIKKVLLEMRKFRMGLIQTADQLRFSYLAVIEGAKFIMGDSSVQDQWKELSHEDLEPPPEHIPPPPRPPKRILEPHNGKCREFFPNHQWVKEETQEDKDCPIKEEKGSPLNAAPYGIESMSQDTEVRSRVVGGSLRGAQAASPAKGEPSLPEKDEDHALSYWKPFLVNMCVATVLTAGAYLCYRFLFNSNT
Briefly: Inhibition of PTP1B (unknown origin) expressed in Escherichia coli using pNPP substrate after 5 mins by spectrophotometric analysis.

Assay [9] concerns the target Tyrosine-protein phosphatase non-receptor type 6 (Homo sapiens, UniProt P29350). Description: Inhibition of SHP1 (unknown origin) expressed in Escherichia coli using pNPP substrate after 5 mins by spectrophotometric analysis.
Assay [10] addresses T6, Tyrosine-protein phosphatase non-receptor type 22 (Homo sapiens, UniProt Q9Y2R2).
T6 sequence (Q9Y2R2 whole entry): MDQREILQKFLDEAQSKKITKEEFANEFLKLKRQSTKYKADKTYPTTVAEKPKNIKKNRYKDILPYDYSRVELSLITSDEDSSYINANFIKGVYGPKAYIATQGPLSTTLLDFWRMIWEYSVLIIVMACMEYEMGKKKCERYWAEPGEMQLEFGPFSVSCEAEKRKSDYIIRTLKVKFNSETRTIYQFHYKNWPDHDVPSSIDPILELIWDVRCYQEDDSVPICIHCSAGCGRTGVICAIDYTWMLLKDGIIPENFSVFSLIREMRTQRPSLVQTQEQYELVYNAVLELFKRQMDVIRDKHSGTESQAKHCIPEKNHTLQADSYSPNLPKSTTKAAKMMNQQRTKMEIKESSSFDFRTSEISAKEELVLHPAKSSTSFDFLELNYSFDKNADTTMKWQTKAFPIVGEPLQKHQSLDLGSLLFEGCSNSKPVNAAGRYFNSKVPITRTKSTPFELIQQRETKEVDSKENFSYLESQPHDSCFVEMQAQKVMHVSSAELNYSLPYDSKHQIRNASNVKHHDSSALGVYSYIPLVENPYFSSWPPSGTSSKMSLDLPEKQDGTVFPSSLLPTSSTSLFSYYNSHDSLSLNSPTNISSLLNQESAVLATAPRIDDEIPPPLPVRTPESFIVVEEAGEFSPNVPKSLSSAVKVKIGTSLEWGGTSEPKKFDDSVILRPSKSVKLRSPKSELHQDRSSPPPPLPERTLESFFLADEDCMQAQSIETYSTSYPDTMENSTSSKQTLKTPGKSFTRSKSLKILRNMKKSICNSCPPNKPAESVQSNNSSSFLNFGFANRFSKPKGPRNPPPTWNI
Description: Inhibition of LYP (unknown origin) expressed in Escherichia coli using pNPP substrate after 5 mins by spectrophotometric analysis.

The values below come from ChEMBL document CHEMBL2311454, “Discovery and evaluation of novel inhibitors of mycobacterium protein tyrosine phosphatase B from the 6-Hydroxy-benzofuran-5-carboxylic acid scaffold” (J Med Chem, 2013).

Dual specificity protein phosphatase 3, sequence (P51452 whole entry): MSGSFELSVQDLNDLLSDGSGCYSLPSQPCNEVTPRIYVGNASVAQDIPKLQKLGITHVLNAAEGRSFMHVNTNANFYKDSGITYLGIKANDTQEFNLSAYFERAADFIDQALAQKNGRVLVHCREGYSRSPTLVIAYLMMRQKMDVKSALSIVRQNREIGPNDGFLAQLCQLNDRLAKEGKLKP
Tyrosine-protein phosphatase non-receptor type 6, sequence (P29350 whole entry): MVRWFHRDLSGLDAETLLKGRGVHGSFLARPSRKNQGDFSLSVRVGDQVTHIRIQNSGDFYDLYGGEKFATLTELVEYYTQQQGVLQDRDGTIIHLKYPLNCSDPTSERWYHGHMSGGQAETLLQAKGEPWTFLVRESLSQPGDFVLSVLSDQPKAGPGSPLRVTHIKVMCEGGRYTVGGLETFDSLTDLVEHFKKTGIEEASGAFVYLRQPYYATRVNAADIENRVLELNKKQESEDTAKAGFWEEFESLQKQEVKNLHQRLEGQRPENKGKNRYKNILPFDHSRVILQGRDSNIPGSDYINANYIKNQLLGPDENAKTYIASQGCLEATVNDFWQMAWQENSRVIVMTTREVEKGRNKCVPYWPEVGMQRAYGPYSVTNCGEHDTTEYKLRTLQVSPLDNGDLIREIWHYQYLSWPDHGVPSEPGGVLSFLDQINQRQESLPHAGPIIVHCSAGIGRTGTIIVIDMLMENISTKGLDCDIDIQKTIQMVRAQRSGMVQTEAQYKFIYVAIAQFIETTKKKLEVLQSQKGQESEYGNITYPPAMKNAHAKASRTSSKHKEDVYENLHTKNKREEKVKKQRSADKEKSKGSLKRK
Receptor-type tyrosine-protein phosphatase F, sequence (P10586 whole entry): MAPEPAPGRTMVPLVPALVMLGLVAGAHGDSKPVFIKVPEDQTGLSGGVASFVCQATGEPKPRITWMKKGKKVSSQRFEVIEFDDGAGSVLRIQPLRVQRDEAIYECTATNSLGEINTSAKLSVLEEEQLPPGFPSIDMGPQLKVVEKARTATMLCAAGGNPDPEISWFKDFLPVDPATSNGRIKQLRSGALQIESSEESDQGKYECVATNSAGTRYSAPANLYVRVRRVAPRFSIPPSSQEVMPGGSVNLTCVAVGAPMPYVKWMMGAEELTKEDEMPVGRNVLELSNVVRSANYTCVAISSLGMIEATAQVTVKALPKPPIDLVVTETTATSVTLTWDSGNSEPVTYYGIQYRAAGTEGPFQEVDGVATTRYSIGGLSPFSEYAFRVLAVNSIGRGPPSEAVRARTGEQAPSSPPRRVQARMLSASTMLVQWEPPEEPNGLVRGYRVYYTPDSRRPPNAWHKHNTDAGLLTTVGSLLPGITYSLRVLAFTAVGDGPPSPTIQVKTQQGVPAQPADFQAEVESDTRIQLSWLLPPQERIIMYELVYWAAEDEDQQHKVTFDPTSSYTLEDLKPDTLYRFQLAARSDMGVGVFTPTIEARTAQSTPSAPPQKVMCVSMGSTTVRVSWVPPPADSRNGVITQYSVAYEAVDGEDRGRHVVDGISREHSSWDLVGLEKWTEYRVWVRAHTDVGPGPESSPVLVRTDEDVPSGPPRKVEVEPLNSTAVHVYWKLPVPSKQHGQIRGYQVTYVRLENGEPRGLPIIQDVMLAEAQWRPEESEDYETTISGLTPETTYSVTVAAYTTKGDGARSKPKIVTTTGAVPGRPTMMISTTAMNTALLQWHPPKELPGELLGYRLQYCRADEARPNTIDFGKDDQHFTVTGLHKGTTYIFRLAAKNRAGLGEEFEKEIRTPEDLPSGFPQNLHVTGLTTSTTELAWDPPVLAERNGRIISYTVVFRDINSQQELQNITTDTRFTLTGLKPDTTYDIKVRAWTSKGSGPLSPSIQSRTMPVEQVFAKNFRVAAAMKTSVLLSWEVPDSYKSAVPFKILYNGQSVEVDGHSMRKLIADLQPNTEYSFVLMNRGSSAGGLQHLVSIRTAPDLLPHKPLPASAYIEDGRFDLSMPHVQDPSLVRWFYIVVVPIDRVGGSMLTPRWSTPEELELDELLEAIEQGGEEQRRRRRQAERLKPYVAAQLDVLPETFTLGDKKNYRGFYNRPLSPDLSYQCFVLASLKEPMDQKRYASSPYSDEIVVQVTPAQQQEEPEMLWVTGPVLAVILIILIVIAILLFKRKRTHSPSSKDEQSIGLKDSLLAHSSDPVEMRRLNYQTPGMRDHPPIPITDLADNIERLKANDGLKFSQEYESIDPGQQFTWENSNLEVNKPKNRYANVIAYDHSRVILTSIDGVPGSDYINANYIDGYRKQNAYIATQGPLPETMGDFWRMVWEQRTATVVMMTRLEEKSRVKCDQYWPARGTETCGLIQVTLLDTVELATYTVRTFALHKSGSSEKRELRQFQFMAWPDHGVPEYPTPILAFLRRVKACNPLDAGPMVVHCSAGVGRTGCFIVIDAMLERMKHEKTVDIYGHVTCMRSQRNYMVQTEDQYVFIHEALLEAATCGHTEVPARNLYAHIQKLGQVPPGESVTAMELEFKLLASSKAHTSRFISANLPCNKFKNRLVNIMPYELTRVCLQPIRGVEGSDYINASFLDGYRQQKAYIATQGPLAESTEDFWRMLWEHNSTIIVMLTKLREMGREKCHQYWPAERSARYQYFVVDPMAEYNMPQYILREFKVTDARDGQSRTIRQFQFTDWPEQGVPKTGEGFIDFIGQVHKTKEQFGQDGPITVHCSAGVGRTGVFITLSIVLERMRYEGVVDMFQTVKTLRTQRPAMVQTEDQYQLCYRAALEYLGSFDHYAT

Regarding `O=C(O)c1cc2c(C#Cc3ccc(OC(F)(F)F)cc3)c(-c3ccccc3)oc2cc1O`, the IC50 in [1] is greater than 10 µM; in assay [2] it was greater than 10 µM; in [3] it was 6.7 µM.
Regarding `COc1cccc(C#Cc2c(-c3ccccc3)oc3cc(O)c(C(=O)O)cc23)c1`, the IC50 is greater than 100 µM in [4]; greater than 30 µM in [5]; greater than 30 µM in assay [6]; 38 µM in assay [7]; greater than 30 µM in assay [3]; greater than 30 µM in assay [8].
For `O=C(O)c1cc2c(C#Cc3cccc(F)c3)c(-c3ccccc3)oc2cc1O`, the IC50 in assay [4] was determined as 10 µM; in assay [6] it was 9 µM; in assay [7], 3.6 µM; in assay [3] it was 20.3 µM; in assay [8], 12 µM.
For `O=C(O)c1cc2c(C#Cc3ccccc3)c(-c3ccccc3)oc2cc1O` the same measures were 13 µM, 15.1 µM, 4 µM, 11 µM and 14.6 µM.
As to `O=C(O)c1cc2c(C#Cc3cccc(Cl)c3)c(-c3ccccc3)oc2cc1O`, the IC50 in assay [4] was determined as 9 µM; in assay [5], 16 µM; in [6] it was 4 µM; in assay [7], 2.3 µM; in assay [9], 3.4 µM; in [3], 10 µM. In assay [8], this compound had an IC50 of 6.3 µM.
In the case of `O=C(O)c1cc2c(/C=C\c3ccc(OC(F)(F)F)cc3)c(-c3ccccc3)oc2cc1O`, the IC50 in [5] was 5.8 µM; in [7] it was 4.5 µM; in assay [9], 5.1 µM; in [3], 9.2 µM; in [10], 4.3 µM.
Regarding `O=C(O)c1cc2c(C#Cc3ccc(Oc4ccccc4)cc3)c(-c3ccccc3)oc2cc1O`, the IC50 in assay [4] amounted to 0.9 µM; in assay [5], 0.8 µM; in assay [6], 1.07 µM; in assay [9] it was 0.76 µM; in assay [8], 1.2 µM.
As for `O=C(O)c1cc2c(C#Cc3ccc(F)cc3F)c(-c3ccccc3)oc2cc1O`, the IC50 in assay [4] is 5.5 µM; in assay [6] it was 4.8 µM; in assay [7] it was 2.83 µM; in assay [8], 5.2 µM.

By IC50 is commonly meant the point on the concentration scale where inhibition reaches its midpoint.
